Measurements from patent EP4772161A1, “SKIN COSMETIC COMPOSITION CONTAINING BOTRYOCOCCENE AS ACTIVE INGREDIENT” (Phycochemy Corporation, priority 2023, dated 2025).

How the values were obtained:
Type in all cases: cell-based, human
[1] = test system: NHEK cells; experiment: Cytotoxicity with botryococcene treatment (Neutral Red uptake); conditions: 24 hours
Protocol: (§1) Normal human epidermal keratinocytes (NHEKs) were cultured in HuMedia-KG2 (KG2) medium containing 10% fetal bovine serum, 1% antibiotic and 1% human epidermal keratinocyte growth supplement, in a 37°C, 5% CO2 incubator.
NHEK cells were seeded on a 96-well plate at a density of 2.5 × 10^4 cells/well in KG2 medium, and incubated for 24 hours. The supernatant was aspirated, the medium was exchanged with HuMedia-KB2 (KB2) medium containing 0, 12.5, 25, 50, 100, 200 and 400 µM botryococcene, and the mixture was incubated for 24 hours. After culturing, the cells were washed with PBS, the medium was exchanged with KB2 medium containing 0.003% Neutral Red, and culturing was carried out for 2 hours. The Neutral Red in the cells was extracted with 1 M HCl in 30% MeOH. The absorbance at 550 nm was measured with a microplate reader.

[2] = test system: intracellular ROS; experiment: Intracellular reactive oxygen species removal (DCFH-DA fluorescence per unit protein); conditions: NHEK cells, botryococcene 25-200 µM for 24 hours
Protocol: as §1
NHEK cells were seeded on a 96-well plate at a density of 2.5 × 10^4 cells/well in KG2 medium, and incubated for 24 hours. The supernatant was removed, the medium was exchanged with KB2 medium containing 0, 25, 50, 100 and 200 µM botryococcene, and incubation was carried out for 24 hours. After culturing, the cells were washed with PBS, the medium was exchanged with HBSS buffer containing 200 µM H2O2, and culturing was continued for 1 hour. The supernatant was removed and culturing was carried out for 30 minutes in HBSS buffer containing 20 µM DCFH-DA. The fluorescence intensity was measured with a microplate reader ([…]). The cells were then dissolved in 50 µL of PBS containing 0.5% Triton^R X-100, the protein level was quantified, and the fluorescence intensity per unit protein was normalized.

[3] = test system: NHEK cells; experiment: Protection against cytotoxicity induced by H2O2 (Neutral Red uptake); conditions: botryococcene 25-200 µM for 24 hours, then 300 µM H2O2 for 1 hour
Protocol: as §1
NHEK cells were seeded on a 96-well plate at a density of 2.5 × 10^4 cells/well in KG2 medium, and incubated for 24 hours. The supernatant was aspirated, the medium was exchanged with KB2 medium containing 0, 25, 50, 100 and 200 µM botryococcene, and incubation was carried out for 24 hours. After culturing, the cells were washed for 1 hour with HBSS containing PBS and 300 µM H2O2, and the cells were then incubated for 24 hours in KB2 medium. After incubation, the cells were washed with PBS, the medium was exchanged with KB2 medium containing 0.003% Neutral Red, and culturing was carried out for 2 hours. After culturing, the cells were washed with PBS. The Neutral Red in the cells was extracted with 1 M HCl in 30% MeOH. The absorbance at 550 nm was measured with a microplate reader.

[4] = test system: IL-1α; experiment: IL-1α production in culture supernatant of NHEK cells, with or without UVB irradiation (ELISA, per unit protein)
Protocol: as §1
(§2) NHEK cells were seeded on a 96-well plate at a density of 2.5 × 10^4 cells/well in KG2 medium, and incubated for 24 hours. The supernatant was aspirated, the medium was exchanged with KB2 medium containing 0, 25, 50, 100 and 200 µM botryococcene, and culturing was continued for 24 hours, after which the cells were washed with PBS and the medium was exchanged with HBSS. The cells were then irradiated with UVB (280 to 320 nm, 20 mJ/cm^2) and cultured for 24 hours in fresh KB2 medium. The IL-1α and PGE2 expression levels in the culture supernatants were measured using an ELISA measuring kit. The cells were then dissolved in 50 µL of PBS containing 0.5% Triton^R X-100, the protein level was quantified, and the IL-1α and PGE2 production levels per unit protein were calculated.

[5] = test system: PGE2; experiment: PGE2 production in culture supernatant of NHEK cells, with or without UVB irradiation (ELISA, per unit protein)
Protocol: as §1, §2

[6] = test system: NHEK cells; experiment: Fluorescent bead (FluoSpheres) phagocytosis induced by UVB irradiation; conditions: UVB 20 mJ/cm^2
Protocol: as §1
NHEK cells were seeded on a 96-well plate at a density of 2.5 × 10^4 cells/well in KG2 medium, and incubated for 24 hours. The supernatant was aspirated, the medium was exchanged with KB2 medium containing 0, 25, 50, 100 and 200 µM botryococcene, and culturing was continued for 24 hours, after which the cells were washed with PBS and the medium was replaced with HBSS. The cells were then irradiated with UVB (280 to 320 nm, 20 mJ/cm^2) and cultured for 24 hours in fresh KB2 medium. After replacing the medium with of KB2 medium containing FluoSpheres™ and allowing the cells to stand for 4 hours, they were dissolved with 50 µL of PBS containing 0.5% Triton^R X-100 and the fluorescence of the cell lysate was measured with a microplate reader. The fluorescence of the cell lysate was detected with a fluorescence reader at an excitation/luminous wavelength of 535 nm/590 nm. The cells were then dissolved in 50 µL of PBS containing 0.5% Triton^R X-100, the protein level was quantified, and the fluorescence intensity per unit protein was normalized.

[7] = test system: type I collagen; experiment: Type I collagen production by NHDF cells treated with supernatant (K-CM) of UVB-irradiated NHEK cells (ELISA, per unit protein)
Protocol: as §1
(§3) Normal human skin fibroblasts (NHDFs) were cultured in DMEM with addition of 10% fetal bovine serum, 1% antibiotic and 1% human epidermal keratinocyte growth supplement, in a 37°C, 5% CO2 incubator.
(§4) NHEK cells were seeded on a 96-well plate at a density of 2.5 × 10^4 cells/well in KG2 medium, and incubated for 24 hours. The supernatant was aspirated, the medium was exchanged with KB2 medium containing 0, 25, 50, 100 and 200 µM botryococcene, and culturing was continued for 24 hours, after which the cells were washed with PBS and the medium was replaced with HBSS. The cells were then irradiated with UVB (280 to 320 nm, 20 mJ/cm^2) and cultured for 24 hours in fresh KB2 medium. After culturing, the supernatant (K-CM) was collected. NHDF cells were seeded on a 96-well plate at a density of 2.0 × 10^4 cells/well in DMEM medium, and incubated for 24 hours. […] The cells were then dissolved in 50 µL of PBS containing 0.5% Triton^R X-100, and the protein level was quantified with a BCA Protein Assay Kit (product of Thermo Fisher Scientific), calculating the type I collagen and MMP-1 production per unit protein.

[8] = test system: MMP-1; experiment: MMP-1 production by NHDF cells treated with supernatant (K-CM) of UVB-irradiated NHEK cells (ELISA, per unit protein)
Protocol: as §1, §3, §4

[9] = botryococcene 200 µM, UVB 20 mJ/cm^2
[10] = botryococcene 25 to 100 µM, UVB 20 mJ/cm^2
[11] = NHDF cells with K-CM of UVB-irradiated NHEK cells pretreated with botryococcene 200 µM
[12] = NHDF cells with K-CM of UVB-irradiated NHEK cells pretreated with botryococcene 25 to 100 µM

For `C=C[C@@](C)(/C=C/[C@H](C)CC[C@H](C)C(=C)CC[C@H](C)C(=C)C)CC[C@H](C)C(=C)CC[C@H](C)C(=C)C` [botryococcene], the cell viability ([1]; botryococcene 0 to 200 µM) was “No change in cell viability was observed”, the cell viability ([1]; botryococcene 400 µM) was “a notable reduction was observed” and the “intracellular ROS concentration” value ([2]; then 200 µM H2O2 treatment for 1 hour) was “decrease in a concentration-dependent manner”. For the same compound, the “intracellular ROS concentration” value ([2]; without H2O2 treatment) was “decrease in a concentration-dependent manner”, the “reduction in cell viability by H2O2 treatment” value [3] was “restored by addition of botryococcene, in a concentration-dependent manner” and the “Induction of IL-1α production” value [4, 9] was “not inhibited”. The “IL-1α production induced by UVB irradiation” value [4, 10] was “inhibited all of the IL-1α and PGE2 production induced by UVB irradiation in a concentration-dependent manner up to 100 µM”, the “amount of IL-1α produced” value ([4]; non-UVB-irradiated conditions, botryococcene up to 100 µM) was “reduced by botryococcene in a concentration-dependent manner up to 100 µM for IL-1α” and the “Induction of PGE2 production” value [5, 9] was “not inhibited”. For the same compound, the “PGE2 production induced by UVB irradiation” value [5, 10] was “inhibited all of the IL-1α and PGE2 production induced by UVB irradiation in a concentration-dependent manner up to 100 µM”, the “amount of PGE2 produced” value ([5]; non-UVB-irradiated conditions, botryococcene up to 50 µM) was “reduced by botryococcene in a concentration-dependent manner” and the “effect of inhibiting fluorescent bead phagocytosis” value ([6]; botryococcene 200 µM) was “less prominent than with 50 µM or 100 µM”. The “fluorescent bead phagocytosis by UVB irradiation” value ([6]; botryococcene 25 to 100 µM) was “inhibited fluorescent bead phagocytosis by UVB irradiation in a concentration-dependent manner up to 100 µM”, the “inhibiting effect on reduction in collagen production” value [7, 11] was “less prominent than with 50 µM or 100 µM” and the “reduction in collagen production” value [7, 12] was “inhibited the reduction in collagen production and acceleration of MMP-1 production in a concentration-dependent manner up to 100 µM”. For the same compound, the “inhibiting effect on acceleration of MMP-1 production” value [8, 11] was “less prominent than with 50 µM or 100 µM” and the “acceleration of MMP-1 production” value [8, 12] was “inhibited the reduction in collagen production and acceleration of MMP-1 production in a concentration-dependent manner up to 100 µM”.
